# Experimental data: patent publication US7147837B2, “Bioactivated diagnostic imaging constrast agents” (Epix Pharmaceuticals, Inc., priority 1996, dated 2006)
# Where two headings read alike, the source gives them in different places.
# Key:
# [1] = molecular target: T1, human serum albumin (HSA) (Homo sapiens, UniProt P02768); assay: Longitudinal relaxivity (R1) in PBS containing 4.5% HSA; format: physicochemical; settings: for Relaxivity in 4.5% HSA: longitudinal relaxivity R1, 20 MHz, 37° C., PBS pH 7.4 with 4.5% HSA, unit from R1 definition, not in table
# T1 sequence (P02768 25-609): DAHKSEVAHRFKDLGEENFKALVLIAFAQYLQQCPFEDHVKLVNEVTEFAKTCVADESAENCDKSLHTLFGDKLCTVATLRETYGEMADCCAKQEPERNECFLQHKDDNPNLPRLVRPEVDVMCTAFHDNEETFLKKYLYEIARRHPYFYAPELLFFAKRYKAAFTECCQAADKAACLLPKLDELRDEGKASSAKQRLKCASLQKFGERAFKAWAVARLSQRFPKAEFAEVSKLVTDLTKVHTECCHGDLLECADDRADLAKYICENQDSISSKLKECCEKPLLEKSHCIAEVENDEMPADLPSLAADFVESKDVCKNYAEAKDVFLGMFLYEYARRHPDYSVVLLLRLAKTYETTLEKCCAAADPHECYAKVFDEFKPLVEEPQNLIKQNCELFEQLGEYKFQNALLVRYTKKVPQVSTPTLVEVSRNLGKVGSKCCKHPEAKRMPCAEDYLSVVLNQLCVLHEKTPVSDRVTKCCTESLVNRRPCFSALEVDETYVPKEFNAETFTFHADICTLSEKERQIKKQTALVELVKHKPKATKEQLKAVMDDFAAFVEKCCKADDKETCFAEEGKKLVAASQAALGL
# From the text: The magnetic resonance phenomena is complex, and different paramagnetic materials alter the MRI signal to various degrees. See R. B. Lauffer, Chemical Reviews (1987), 87, pp. 901–927. A quantitative measurement of the ability of a contrast agent to relax water protons, and consequently affect the MRI image, is provided by its relaxivity. Relaxivity is the dependence of water proton signal intensity upon the concentration of paramagnetic metal ion in solution. Relaxivity is defined as the induced T1 or T2 relaxation per unit time (R1 or R2 in units of mM^−1 sec^−1) observed for a contrast agent, where the concentration of the agent is expressed in a millimolar (mM).
# The degree to which an agent has been tuned for maximum relaxivity can be assessed by measuring the relaxivity-bound (R1-bound) in the presence of HSA. This requires measuring the relaxivity of the free chelate (R1-free) as well as the relaxivity (R1-observed) and percent binding of the agent in 4.5% HSA. The R1-observed is a mole fraction weighted average of R1-free and R1-bound: R1-observed=(fraction-free*R1-free)+(fraction-bound*R1-bound) Thus:
# (§1) In Table V, the longitudinal relaxivities (R1) were obtained at 20 MHz and 37° C. by determining the concentration dependent relaxation rate (1/T1) of water protons in phosphate buffered saline (PBS, 150 mM NaCl, 10 mM phosphate, pH=7.4) or in PBS solutions containing 4.5% human serum albumin (HSA). The percent bound to HSA was determined by ultrafiltration of a 0.1 mM chelate, 4.5% HSA solution.
# [2] = molecular target: T1, human serum albumin (HSA); assay: Percent bound to HSA by ultrafiltration; format: binding; settings: for Percent Binding in 4.5% HSA: ultrafiltration, 0.1 mM chelate
# Method: Protein binding of contrast agents can be assessed in vitro by equilibrium dialysis or ultrafiltration using a physiologically relevant protein concentration in buffer. See, G. N. Rolinson and R. Sutherland, British J. Pharmac. Chemother. (1965), 25, p. 638 (ultrafiltration); D. Glick, Methods Biochem. Anal. (1956), 3 p. 265 (equilibrium dialysis). The protein binding measurements set forth in this application are determined by ultrafiltration using 4.5% (w/w) human serum albumin in phosphate buffered saline (0.15 NaCl, 10 mM phosphate, pH 7.4). Preferably at least 10%, and more preferably at least 50%, and even more preferably at least 80%, and most preferably at least 95%, of an activated protein-binding contrast agent will be bound to the protein under physiologically relevant conditions. In this application, the measurement of percent binding of the contrast agent to HSA has an error of approximately +/−5%. Protein binding to other proteins or to serum can be assessed in a similar fashion.
# as §1
# alkaline phosphatase [3] = assay: T1-weighted MRI scan at 1.0 Tesla of 4.5% HSA solutions with or without alkaline phosphatase; format: biochemical
# Method: Solutions of 4.5% HSA containing compounds 1 and 8 (0.1–0.2 mM) were prepared. After 15 minutes, an initial T1-weighted MRI scan (FISP-3D, TR=60, TE=5, alpha=60) at 1.0 Tesla of the 4.5% HSA solutions was obtained. […] Three units of alkaline phosphatase were added to half of the HSA solutions containing 1 and additional T1-weighted MRI scans were obtained. After 130 minutes, the solutions that contained 1 and alkaline phosphatase obtained 96% of the signal intensity that for the solutions that contain 8 at equivalent concentrations. […] A 20% increase in signal intensity was observed after addition of alkaline phosphatase to solutions containing 1.
# HSA [4] = molecular target: T2, HSA (Homo sapiens, UniProt P02768); settings: cited from earlier work
# T2 sequence (P02768 25-609): as above
# [5] = cited from earlier work
# HSA [6] = molecular target: T2, HSA; settings: cited from earlier work; remark: listed apart in the source
# [7] = test system: alpha 1-acid glycoprotein (AAG); settings: binding to AAG; cited from earlier work
# alkaline phosphatase [8] = assay: Bioactivation of prodrug by alkaline phosphatase in 4.5% HSA, 1/T1 monitored over time; format: biochemical; settings: for 1/T1: 4.5% HSA, three units alkaline phosphatase, 20 MHz
# Method: A solution of prodrug 1 (0.3 mM) was prepared in PBS buffer (pH 7) containing 4.5% HSA. […] Three units of alkaline phosphatase (1 unit converts […] of p-nitrophenylphosphate to p-nitrophenol per minute in phosphate buffered saline at 0.1 mM substrate) were added to the 4.5% HSA solution of compound 1 and the 1/T1 was monitored over time.
# HSA [9] = molecular target: T2, HSA; settings: cited from earlier work; remark: listed apart in the source
structure (smiles),measurement,setting,value
O=C(O)CN(CCN(CC(=O)O)CC(COc1ccc(-c2ccc(O)cc2)cc1)N(CC(=O)O)CC(=O)O)CC(=O)O (centres unmarked) [Compound 8],relaxivity compared with prodrug,"[1]; bound to HSA, 0.1 mM",higher relaxivity
same,Relaxivity in 4.5% HSA,[1],26.4 ± 0.4 mM⁻¹ s⁻¹
same,HSA binding affinity compared with prodrug,[2]; concentration of 0.1 mM,greater affinity than prodrug 1
same,Percent Binding in 4.5% HSA,[2],63 ± 2%
same,brightness of T1-weighted MRI scan,"alkaline phosphatase [3]; 0.1–0.2 mM in 4.5% HSA, 1.0 Tesla, equivalent concentrations, no enzyme",brighter than the solutions containing 1
O=C(CCCCC(=O)Nc1c(I)cc(I)c(C(=O)O)c1I)Nc1c(I)cc(I)c(C(=O)O)c1I [iodipamide],binding to HSA,HSA [4],> 98%
CC1(C)C(/C=C/C=C/C=C/C=C2\N(CCCCS(=O)(=O)O)c3ccc4ccccc4c3C2(C)C)=[N+](CCCCS(=O)(=O)[O-])c2ccc3ccccc3c21 [indocyanine green],maximal absorbance,[5]; before binding to proteins,770–780 nm
same,maximal absorbance,[5]; upon binding to proteins in plasma or blood,790–805 nm
COn1cc(C(=O)O)c(=O)c2cc3c(cc21)OCO3 [miloxacin],fraction bound to HSA (fb),HSA [6],0.86
CCn1cc(C(=O)O)c(=O)c2cc(F)c(N3CCNCC3)nc21 [enoxacin],fraction bound to HSA (fb),HSA [6],0.35
CN(C)CCCN1c2ccccc2Sc2ccc(Cl)cc21 [chlorpromazine],Ka,[7],35.4×10^5
CCn1cc(C(=O)O)c(=O)c2cc(F)c(N3CCNC(C)C3)c(F)c21 (centres unmarked) [NY-198],fraction bound to HSA (fb),HSA [6],0.28
"O=C(O)CN(CCN(CC(=O)O)CC(COc1ccc(-c2ccc(OP(=O)(O)O)cc2)cc1)N(CC(=O)O)CC(=O)O)CC(=O)O (centres unmarked) (Gd complex, metal not drawn) [Compound 1]",Relaxivity in 4.5% HSA,[1],15.9 ± 0.2 mM⁻¹ s⁻¹
same,Percent Binding in 4.5% HSA,[2],47 ± 1%
same,change in 20 MHz proton relaxation rate 1/T1 with time,"alkaline phosphatase [8]; 0.3 mM in PBS (pH 7) with 4.5% HSA, before addition of alkaline phosphatase",No change
same,1/T1,"alkaline phosphatase [8]; 0.3 mM prodrug in PBS (pH 7), time 0 min",4.440 s⁻¹
same,1/T1,"alkaline phosphatase [8]; 0.3 mM, time 1 min",4.348 s⁻¹
same,1/T1,"alkaline phosphatase [8]; 0.3 mM, time 2 min",4.651 s⁻¹
same,1/T1,"alkaline phosphatase [8]; 0.3 mM, time 4 min",4.878 s⁻¹
same,1/T1,"alkaline phosphatase [8]; 0.3 mM, time 6 min",5.025 s⁻¹
same,1/T1,"alkaline phosphatase [8]; 0.3 mM, time 14 min",5.376 s⁻¹
same,1/T1,"alkaline phosphatase [8]; 0.3 mM, time 48 min",6.250 s⁻¹
same,1/T1,"alkaline phosphatase [8]; 0.3 mM, time 90 min",6.849 s⁻¹
same,1/T1,"alkaline phosphatase [8]; 0.3 mM, time 110 min",7.042 s⁻¹
same,1/T1,"alkaline phosphatase [8]; 0.3 mM, time 137 min",7.299 s⁻¹
same,approximate expected increase in signal intensity,alkaline phosphatase [8]; corresponding to the change in 1/T1 upon complete activation,~24%
same,change in 1/T1 from time zero,alkaline phosphatase [8]; upon completion of enzymatic activation of 1 to 8,2.86 s⁻¹
same,MRI image without alkaline phosphatase,"alkaline phosphatase [3]; 4.5% HSA, no alkaline phosphatase, during the MRI scans",remained as constant dark images
same,increase in signal intensity,alkaline phosphatase [3]; after addition of alkaline phosphatase,20%
same,signal intensity relative to solutions containing 8,"alkaline phosphatase [3]; with three units alkaline phosphatase, after 130 minutes, equivalent concentrations",96%
C[C@H](CCC(=O)O)[C@H]1CC[C@H]2[C@@H]3[C@H](O)C[C@@H]4C[C@H](O)CC[C@]4(C)[C@H]3CC[C@]12C [chenodeoxycholic acid],binding constant,HSA [9],5.5×10^4
CCn1cc(C(=O)O)c(=O)c2ccc(C)nc21 [nalidixic acid],fraction bound to HSA (fb),HSA [6],0.71
